# Assay results taken from ChEMBL document CHEMBL2434942, “β-Ionone derived chalcones as potent antiproliferative agents” (Eur J Med Chem, 2013).
# Activity calls are given as the source filed them. The calls are words filed in the database; no cut-off is given here.
# Assays:
# [1] = Cytotoxicity against human Hep cells after 48 hrs by SRB assay; type: functional, cell-based
# IMR-32 = assay: Cytotoxicity against human IMR32 cells after 48 hrs by SRB assay; type: functional, cell-based; details: IMR-32, 48 h
# PC-3 = assay: Cytotoxicity against human PC3 cells after 48 hrs by SRB assay; type: functional, cell-based; details: PC-3, 48 h
# HeLa = assay: Cytotoxicity against human HeLa cells after 48 hrs by SRB assay; type: functional, cell-based
# MCF7 = assay: Cytotoxicity against human MCF7 cells after 48 hrs by SRB assay; type: functional, cell-based; details: MCF7, 48 h
# CHO [2] = assay: Induction of apoptosis in CHO cells assessed as cell shrinkage, membrane blebbing and formation of apoptotic body at 5 to 15 uM after 24 hrs by inverted light microscopic analysis; type: functional, cell-based; details: Cricetulus griseus
# CHO [3] = assay: Cell cycle arrest in CHO cells assessed as accumulation at sub-G0 phase at 15 uM after 12 hrs using propidium iodide staining by FACS analysis (reference value: 19.8%); type: functional, Cricetulus griseus
# CHO [4] = assay: Induction of apoptosis in CHO cells assessed as viable cells at 15 uM after 12 hrs using Annexin V/PI staining by flow cytometry (reference value: 91.8%); type: functional; details: Cricetulus griseus, read-out: Activity
# CHO [5] = assay: Induction of apoptosis in CHO cells assessed as early apoptotic cells at 15 uM after 12 hrs using Annexin V/PI staining by flow cytometry (reference value: 4.3%); type: functional, Cricetulus griseus
# CHO [6] = assay: Induction of apoptosis in CHO cells assessed as late apoptotic cells at 10 uM after 12 hrs using Annexin V/PI staining by flow cytometry (reference value: 1%); type: functional, Cricetulus griseus
# CHO [7] = assay: Induction of apoptosis in CHO cells assessed as viable cells at 10 uM after 12 hrs using Annexin V/PI staining by flow cytometry (reference value: 91.8%); type: functional; details: Cricetulus griseus, read-out: Activity
# CHO [8] = assay: Cytotoxicity against CHO cells after 48 hrs by SRB assay; type: functional, cell-based; details: Cricetulus griseus
# CHO [9] = assay: Induction of apoptosis in CHO cells assessed as necrotic cells at 15 uM after 12 hrs using Annexin V/PI staining by flow cytometry (reference value: 3%); type: functional, Cricetulus griseus
# CHO [10] = assay: Induction of apoptosis in CHO cells assessed as necrotic cells at 10 uM after 12 hrs using Annexin V/PI staining by flow cytometry (reference value: 3%); type: functional, Cricetulus griseus
# CHO [11] = assay: Induction of apoptosis in CHO cells assessed as late apoptotic cells at 5 uM after 12 hrs using Annexin V/PI staining by flow cytometry (reference value: 1%); type: functional, Cricetulus griseus
# CHO [12] = assay: Induction of apoptosis in CHO cells assessed as cell shrinkage, membrane blebbing and formation of apoptotic body at 5 to 15 uM after 6 to 12 hrs by inverted light microscopic analysis; type: functional, cell-based; details: Cricetulus griseus
# CHO [13] = assay: Induction of apoptosis in CHO cells assessed as late apoptotic cells at 15 uM after 12 hrs using Annexin V/PI staining by flow cytometry (reference value: 1%); type: functional, Cricetulus griseus
# CHO [14] = assay: Induction of apoptosis in CHO cells assessed as early apoptotic cells at 5 uM after 12 hrs using Annexin V/PI staining by flow cytometry (reference value: 4.3%); type: functional, Cricetulus griseus
# CHO [15] = assay: Induction of apoptosis in CHO cells assessed as viable cells at 5 uM after 12 hrs using Annexin V/PI staining by flow cytometry (reference value: 91.8%); type: functional; details: Cricetulus griseus, read-out: Activity
# CHO [16] = assay: Cell cycle arrest in CHO cells assessed as accumulation at sub-G0 phase at 10 uM after 12 hrs using propidium iodide staining by FACS analysis (reference value: 19.8%); type: functional, Cricetulus griseus
# CHO [17] = assay: Induction of apoptosis in CHO cells assessed as necrotic cells at 5 uM after 12 hrs using Annexin V/PI staining by flow cytometry (reference value: 3%); type: functional, Cricetulus griseus
# CHO [18] = assay: Induction of apoptosis in CHO cells assessed as early apoptotic cells at 10 uM after 12 hrs using Annexin V/PI staining by flow cytometry (reference value: 4.3%); type: functional, Cricetulus griseus
# CHO [19] = assay: Cell cycle arrest in CHO cells assessed as accumulation at sub-G0 phase at 5 uM after 12 hrs using propidium iodide staining by FACS analysis (reference value: 19.8%); type: functional, Cricetulus griseus
SMILES,IC50 [1],IC50 (IMR-32),IC50 (PC-3),IC50 (HeLa),IC50 (MCF7),other results
CC1=C(/C=C/C(=O)/C=C/c2ccc(C#N)cc2)C(C)(C)CCC1,45.6 µM,23.4 µM,11.9 µM,22.2 µM,13.2 µM,–
CC1=C(/C=C/C(=O)/C=C/c2ccc(F)cc2)C(C)(C)CCC1,55.8 µM,7.4 µM,8.2 µM,32.2 µM,6.2 µM,–
CC1=C(/C=C/C(=O)/C=C/c2ccoc2)C(C)(C)CCC1,> 100 µM,56.8 µM,50.3 µM,88.4 µM,100 µM,–
CC1=C(/C=C/C(=O)/C=C/c2ccc(Cl)c(Cl)c2)C(C)(C)CCC1,> 100 µM,72.4 µM,35.5 µM,> 100 µM,53.5 µM,–
CC(=O)O[C@H]1C(=O)[C@@]2(C)[C@H]([C@H](OC(=O)c3ccccc3)[C@]3(O)C[C@H](OC(=O)[C@H](O)[C@@H](NC(=O)c4ccccc4)c4ccccc4)C(C)=C1C3(C)C)[C@]1(OC(C)=O)CO[C@@H]1C[C@@H]2O [PACLITAXEL],–,–,1.5 µM,–,0.5 µM,–
O=c1[nH]cc(F)c(=O)[nH]1 [FLUOROURACIL],0.5 µM,1.3 µM,–,–,–,–
COc1ccccc1/C=C/C(=O)/C=C/C1=C(C)CCCC1(C)C,38.9 µM,19.2 µM,14.2 µM,88.2 µM,13.4 µM,–
CC1=C(/C=C/C(=O)/C=C/c2ccccc2)C(C)(C)CCC1,62.2 µM,20.4 µM,12.4 µM,70.2 µM,10.6 µM,–
CC1=C(/C=C/C(=O)/C=C/C=C/c2ccccc2)C(C)(C)CCC1,> 100 µM,23.4 µM,35.4 µM,> 100 µM,46.7 µM,–
CC1=C(/C=C/C(=O)/C=C/c2ccccc2C)C(C)(C)CCC1,41 µM,63.2 µM,44.1 µM,> 100 µM,44.6 µM,–
CC1=C(/C=C/C(=O)/C=C/c2cccc3ccccc23)C(C)(C)CCC1,> 100 µM,43.8 µM,56.4 µM,65.4 µM,53.2 µM,–
CC1=C(/C=C/C(=O)/C=C/c2ccc(Cl)cc2)C(C)(C)CCC1,90.6 µM,52.3 µM,9.5 µM,33.2 µM,10.2 µM,–
CO[C@@]12[C@H](COC(N)=O)C3=C(C(=O)C(C)=C(N)C3=O)N1C[C@@H]1N[C@@H]12 [MITOMYCIN],–,–,–,2 µM,–,–
CC1=C(/C=C/C(=O)/C=C/c2ccc(C)cc2)C(C)(C)CCC1,44.1 µM,19.2 µM,21.5 µM,20.4 µM,23.8 µM,–
CC1=C(/C=C/C(=O)/C=C/c2ccccc2[N+](=O)[O-])C(C)(C)CCC1,44.9 µM,13.5 µM,9.5 µM,36.1 µM,10.1 µM,–
CC1=C(/C=C/C(=O)/C=C/c2ccccc2F)C(C)(C)CCC1,23.6 µM,15.6 µM,3.4 µM,41.9 µM,11 µM,–
CC1=C(/C=C/C(=O)/C=C/c2ccc([N+](=O)[O-])cc2)C(C)(C)CCC1,55.5 µM,3.2 µM,1.9 µM,28.7 µM,5.5 µM,Activity (CHO [2]): Active; Activity (CHO [3]): 48.1%; viability at 15 µM (CHO [4]): 52.3%; Activity (CHO [5]): 1.1%; Activity (CHO [6]): 5.8%; viability at 10 µM (CHO [7]): 59.5%; Activity (CHO [8]): Dose-dependent effect; IC50 (CHO [8]): 10 µM; Activity (CHO [9]): 39.1%; Activity (CHO [10]): 33.3%; Activity (CHO [11]): 5.1%; Activity (CHO [12]): Active; Activity (CHO [13]): 7.5%; Activity (CHO [14]): 0.8%; viability at 5 µM (CHO [15]): 74.7%; Activity (CHO [16]): 36%; Activity (CHO [17]): 19.4%; Activity (CHO [18]): 1.4%; Activity (CHO [19]): 30.5%
COc1ccc(/C=C/C(=O)/C=C/C2=C(C)CCCC2(C)C)cc1,> 100 µM,23.9 µM,58.7 µM,15.7 µM,19.6 µM,–
CC1=C(/C=C/C(=O)/C=C/c2ccc(Br)cc2)C(C)(C)CCC1,34.5 µM,10.4 µM,18.9 µM,88.8 µM,20.1 µM,–
COc1cc(/C=C/C(=O)/C=C/C2=C(C)CCCC2(C)C)cc(OC)c1OC,45.5 µM,55.5 µM,32.6 µM,73.2 µM,18.7 µM,–
COc1ccc(/C=C/C(=O)/C=C/C2=C(C)CCCC2(C)C)cc1OC,72.4 µM,29.2 µM,30.2 µM,85 µM,35.6 µM,–
CC1=C(/C=C/C(=O)/C=C/c2cccnc2)C(C)(C)CCC1,45.6 µM,25.3 µM,10.2 µM,17.4 µM,15.5 µM,–
CC1=C(/C=C/C(=O)/C=C/c2ccccc2Br)C(C)(C)CCC1,16.3 µM,16.3 µM,11.4 µM,57.9 µM,20.7 µM,–
COc1ccccc1/C=C/C=C/C(=O)/C=C/C1=C(C)CCCC1(C)C,65.3 µM,72.4 µM,25.3 µM,33.5 µM,55.4 µM,–
CC1=C(/C=C/C(=O)/C=C/c2ccccc2Cl)C(C)(C)CCC1,54.2 µM,13.7 µM,11.3 µM,21.8 µM,54.6 µM,–
CC[C@@]1(O)C(=O)OCc2c1cc1n(c2=O)Cc2cc3ccccc3nc2-1 [CAMPTOTHECIN],–,–,–,–,–,Activity (CHO [6]): 2.4%; viability at 10 µM (CHO [7]): 74.8%; Activity (CHO [10]): 21.6%; Activity (CHO [16]): 50.5%; Activity (CHO [18]): 1.2%
